# Test results: US8217079B2 (priority 2010, dated 2012)
# Key:
# [1] = system: JAK2^V617F positive Polycythemia Vera; assay: Phase II study of ITF2357 in combination with N-hydroxyurea in Polycythemia Vera; assay type: in vivo, human
# Text: A multicentre, randomized, open-label, phase II study testing Givinostat-Hydrochloride-Monohydrate (ITF2357) in combination with N-hydroxyurea (HU) in Polycythemia Vera (PV).
# Population in the study: 44 patients of both genders with an established diagnosis of JAK2^V617F positive PV according to the revised WHO criteria, in need of cytoreductive therapy, non-responders to therapeutic doses of HU monotherapy for at least 3 months.
# Duration of the treatment: up to a maximum of 24 weeks of continual administration.
# Primary objective: To evaluate the efficacy of ITF2357 in combination with HU in patients with JAK2^V617F positive Polycythemia Vera non-responders to therapeutic doses of HU in monotherapy.
# Results: Patients response has been evaluated according to the european criteria [as reported in G. Barosi et al. Blood 113, 4829-4833 (2009)].
# [2] = system: stem cells obtained from PV or ET patients; conditions: sub-micromolar concentrations; cited from earlier work
# PRV-1 gene expression = conditions: in vivo; cited from earlier work
# [3] = patients on cytostatic therapy; cited from earlier work
# PV = conditions: patients with PV; cited from earlier work
compound,measurement,setting,value
"CCN(CC)Cc1ccc2cc(COC(=O)Nc3ccc(C(=O)NO)cc3)ccc2c1.Cl [ITF2357, Diethyl-[6-(4-hydroxycarbamoyl-phenylcarbamoyloxymethyl)-naphthalen-2-ylmethyl]-ammonium chloride]",control of the clinico-hematologic parameters (response by european criteria),"[1]; ITF2357 50 mg/day combined with N-hydroxyurea 500 mg/day, preliminary data, 6 patients refractory to previous HU monotherapy",significant control of the clinico-hematologic parameters
same,amelioration of the clinical parameters,"[1]; in combination with N-hydroxyurea, compared to HU monotherapy, patients with myeloproliferative syndromes, preferably polycythemia vera",significant amelioration of the clinical parameters
same,clonogenic activity of stem cells,[2],inhibit the clonogenic activity
"NC(=O)NO [N-hydroxyurea, reference compound]",PRV-1 gene expression,PRV-1 gene expression,increase
same,side effects observed (drug tolerance),[3],leg ulcers and buccal aphthous ulcers
O=C(CCBr)N1CCN(C(=O)CCBr)CC1 [Pipobroman],side effects observed (drug tolerance),[3],gastric pain and diarrhea
IFN-α,PRV-1 expression,PRV-1 gene expression,significantly reduces
same,efficacy of therapy compared with N-hydroxyurea treatment,PV,more effective
